The structures appear in SMILES notation.

Experimental findings from BindingDB's records for doi:10.1021/jm00101a032 (Pfizer, 1992) are described below.

Assay [1] can be described thus: Effect on forskolin stimulated adenylate cyclase activity at 5-hydroxytryptamine 1A receptor of guinea pig hippocampus.
A short description of assay [2]: Binding affinity against 5-hydroxytryptamine 1A receptor.
Assay [3] in a line: Effect on forskolin stimulated adenylate cyclase activity at 5-hydroxytryptamine 1A receptor of guinea pig hippocampus. The source holds these as a separate data set.

As to `COc1ccc2[nH]cc(C[C@H]3CCCN3C)c2c1` [5-Methoxy-3-((R)-1-methyl-pyrrolidin-2-ylmethyl)-1H-indole], the EC50 (as a rule, the midpoint of the concentration-response curve) in assay [1] came out at 35 nM. For the same compound, the IC50 (in general, the point on the concentration scale where inhibition reaches its midpoint) in assay [2] was 10 nM.
In the case of `COc1ccc2[nH]cc(C[C@@H]3CCCN3C)c2c1` [5-Methoxy-3-((S)-1-methyl-pyrrolidin-2-ylmethyl)-1H-indole], in assay [3], the IC50 was 140 nM.
